18 molecules from US20170334899A1, “AMINO-SUBSTITUTED ISOTHIAZOLES” (Bayer Pharma Aktiengesellschaft, priority 2014, published 2017) can be followed below.

Test [1] relates to human cervical tumor cell line HeLa (ATCC CCL-2). In words: SAC-Formation - Paclitaxel-Induced Assay. Particulars: 24 h, HeLa cells, paclitaxel 0.05 μM, test range 0.005 μM-20 μM, read-out: IC50 [mol/l] SAC-Formation - Paclitaxel-Induced Assay. Type of test: cell-based. Summed up:
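HeLa cells incubated overnight at 37° C, then given paclitaxel (0.05 μM final) plus test compound (0.005–20 μM, 0.5% DMSO) together for 24 h at 37° C. Fixed cells stained for phospho-histone H3 Ser10 (mitotic cells) and Hoechst 33342 (cell count); imaging-derived mitotic index fitted by four-parameter Hill equation.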

In test [2] the target is T1, catalytic domain of human Bub1 (amino acids 704-1085) (Homo sapiens, UniProt O43683).
T1 construct: catalytic domain of human Bub1 (amino acids 704-1085); His6 (N); made in house; host or cells: insect cells (Hi5)
Kind of test: Bub1 kinase assay (TR-FRET). Type of test: biochemical. Particulars: 10 μM ATP, avg, read-out: Bub1 avg (IC50 [mol/l]). From the text:
Bub1-inhibitory activity of compounds of the present invention was quantified employing the Bub1 TR-FRET assay as described in the following paragraphs.
N-terminally His6-tagged recombinant catalytic domain of human Bub1 (amino acids 704-1085), expressed in insect cells (Hi5) and purified by Ni-NTA affinity chromatography and subsequent size exclusion chromatography, was used as enzyme. As substrate for the kinase reaction the biotinylated peptide biotin-Ahx-VLLPKKSFAEPG (C-terminus in amid form) was used which can be purchased e.g. form the company Biosyntan (Berlin, Germany).
For the assay 50 nl of a 100fold concentrated solution of the test compound in DMSO was pipetted into a black low volume 384well microtiter plate (Greiner Bio-One, Frickenhausen, Germany), 2 μl of a solution of Bub1 in aqueous assay buffer [50 mM Tris/HCl pH 7.5, 10 mM magnesium chloride (MgCl2), 200 mM potassium chloride (KCl), 1.0 mM dithiothreitol (DTT), 0.1 mM sodium ortho-vanadate, 1% (v/v) glycerol, 0.01% (w/v) bovine serum albumine (BSA), 0.005% (v/v) Trition X-100 (Sigma), 1× Complete EDTA-free protease inhibitor mixture (Roche)] were added and the mixture was incubated for 15 min at 22° C. to allow pre-binding of the test compounds to the enzyme before the start of the kinase reaction. Then the kinase reaction was started by the addition of 3 μl of a solution of adenosine-tri-phosphate (ATP, 16.7 μM=>final conc. in the 5 μl assay volume is 10 μM) and substrate (1.67 μM=>final conc. in the 5 μl assay volume is 1 μM) in assay buffer and the resulting mixture was incubated for a reaction time of 60 min at 22° C. The concentration of Bub1 was adjusted depending of the activity of the enzyme lot and was chosen appropriate to have the assay in the linear range, typical concentrations were in the range of 200 ng/ml. The reaction was stopped by the addition of 5 μl of a solution of TR-FRET detection reagents (0.2 μM streptavidine-XL665 [Cisbio Bioassays, Codolet, France] and 1 nM anti-phosho-Serine antibody [Merck Millipore, cat. #35-001] and 0.4 nM LANCE EU-W1024 labeled anti-mouse IgG antibody [Perkin-Elmer, product no. AD0077, as an alternative a Terbium-cryptate-labeled anti-mouse IgG antibody from Cisbio Bioassays can be used]) in an aqueous EDTA-solution (50 mM EDTA, 0.2% (w/v) bovine serum albumin in 100 mM HEPES pH 7.5).
The resulting mixture was incubated 1 h at 22° C. to allow the formation of complex between the phosphorylated biotinylated peptide and the detection reagents. Subsequently the amount of phosphorylated substrate was evaluated by measurement of the resonance energy transfer from the Eu-chelate to the streptavidine-XL. Therefore, the fluorescence emissions at 620 nm and 665 nm after excitation at 350 nm was measured in a TR-FRET reader, e.g. a Rubystar or Pherastar (both from BMG Labtechnologies, Offenburg, Germany) or a Viewlux (Perkin-Elmer). The ratio of the emissions at 665 nm and at […] was taken as the measure for the amount of phosphorylated substrate. The data were normalised (enzyme reaction without inhibitor=0% inhibition, all other assay components but no enzyme=100% inhibition).
On the technique in general: Time-resolved FRET reads energy transfer from a long-lived donor to a nearby acceptor.

Where a name gives a salt, the structure may show the parent alone. Read-outs that look alike come from different tables or passages of the source.

T1 sequence (O43683 704-1085): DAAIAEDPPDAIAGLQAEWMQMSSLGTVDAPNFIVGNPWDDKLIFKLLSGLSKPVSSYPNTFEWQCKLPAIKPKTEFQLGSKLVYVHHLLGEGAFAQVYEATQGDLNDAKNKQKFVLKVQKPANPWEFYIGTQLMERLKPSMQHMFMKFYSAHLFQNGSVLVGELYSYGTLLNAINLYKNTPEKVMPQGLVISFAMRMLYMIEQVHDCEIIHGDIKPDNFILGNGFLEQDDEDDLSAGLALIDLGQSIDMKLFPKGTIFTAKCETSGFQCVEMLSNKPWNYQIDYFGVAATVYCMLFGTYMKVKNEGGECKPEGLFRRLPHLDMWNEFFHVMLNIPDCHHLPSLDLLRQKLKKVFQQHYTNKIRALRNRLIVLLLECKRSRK

Take `Cc1nsc(Nc2cncc(C(F)(F)F)n2)c1C(=O)Nc1ccc(OCC2CCCN(C(=O)OC(C)(C)C)C2)nc1` (stereo not drawn) [Example 166, tert-butyl 3-{[(5-{[(3-methyl-5-{[6-(trifluoromethyl)pyrazin-2-yl]amino}-1,2-thiazol-4-yl)carbonyl]amino}pyridin-2-yl)oxy]methyl}piperidine-1-carboxylate]: the IC50 in test [1] (Homo sapiens, HeLa) was 170 nM; in test [2], > 20000 nM.

Regarding `Cc1nsc(Nc2cc(C#N)ccn2)c1C(=O)Nc1ccc(Oc2cccnc2)nc1` [Example 119, 5-[(4-Cyanopyridin-2-yl)amino]-3-methyl-N-[6-(pyridin-3-yloxy)pyridin-3-yl]-1,2-thiazole-4-carboxamide], the IC50 in test [1] (Homo sapiens, HeLa) was 20000 nM; in test [2] it was ≥ 20000 nM.

Take `Cc1nsc(Nc2cnc(C(F)(F)F)cn2)c1C(=O)Nc1ccc(OC[C@@H]2CCCN(CCC(F)(F)F)C2)nc1` [Example 422, 3-Methyl-5-{[5-(trifluoromethyl)pyrazin-2-yl]amino}-N-(6-{[(3R)-1-(3,3,3-trifluoropropyl)piperidin-3-yl]methoxy}pyridin-3-yl)-1,2-thiazole-4-carboxamide]: the IC50 in test [1] was 88 nM; in test [2], ≥ 20000 nM. As for `Cc1nsc(Nc2cnc(C(F)(F)F)cn2)c1C(=O)Nc1ccc(OC2CCN(CCC(F)(F)F)CC2)nc1` [Example 10, 3-Methyl-5-{[5-(trifluoromethyl)pyrazin-2-yl]amino}-N-(6-{[1-(3,3,3-trifluoropropyl)-piperidin-4-yl]oxy}pyridin-3-yl)-1,2-thiazole-4-carboxamide], the IC50 in test [1] is 340 nM; in test [2] it was ≥ 20000 nM. With `Cc1nsc(Nc2cnc3cc(F)ccc3n2)c1C(=O)Nc1ccc(S(N)(=O)=O)cc1` [Example 149, 5-[(6-fluoroquinoxalin-2-yl)amino]-3-methyl-N-(4-sulfamoylphenyl)-1,2-thiazole-4-carboxamide], the IC50 in test [1] (Homo sapiens, HeLa) is 1600 nM; in test [2] it was > 20000 nM. As to `Cc1nsc(Nc2cnc(C(F)(F)F)cn2)c1C(=O)Nc1ccc(OC2CCN(CC(F)(F)F)CC2)nc1` [Example 9, -Methyl-N-(6-{[1-(2,2,2-trifluoroethyl)piperidin-4-yl]oxy}pyridin-3-yl)-5-{[5-(trifluoromethyl)pyrazin-2-yl]amino}-1,2-thiazole-4-carboxamide], the IC50 was 360 nM in test [1] (Homo sapiens, HeLa) and ≥ 20000 nM in test [2]. Consider `Cc1nsc(Nc2cnc3ccccc3n2)c1C(=O)Nc1ccc(Oc2cccc(C(F)(F)F)c2)nc1` [Example 117, 3-Methyl-5-(quinoxalin-2-ylamino)-N-{6-[3-(trifluoromethyl)phenoxy]pyridin-3-yl}-1,2-thiazole-4-carboxamide], for which the IC50 is 1500 nM in test [1] (Homo sapiens, HeLa) and ≥ 20000 nM in test [2]. `CC(=O)N(C)CCOc1ccc(NC(=O)c2c(C)nsc2Nc2nc3c(C(F)(F)F)cccc3s2)cn1` [Example 112, N-(6-{2-[Acetyl(methyl)amino]-ethoxy}pyridin-3-yl)-3-methyl-5-{[4-(trifluoromethyl)-1,3-benzothiazol-2-yl]amino}-1,2-thiazole-4-carboxamide]: the IC50 in test [1] (Homo sapiens, HeLa) was 800 nM; in test [2] it was ≥ 20000 nM. On the same counts, the results for `CC(=O)N1CCC(Oc2ccc(NC(=O)c3c(C)nsc3Nc3cnc(C(F)(F)F)cn3)cn2)CC1` [Example 11, N-{6-[(1-Acetylpiperidin-4-yl)oxy]pyridin-3-yl}-3-methyl-5-{[5-(trifluoromethyl)-pyrazin-2-yl]amino}-1,2-thiazole-4-carboxamide] are 150 nM and ≥ 20000 nM. Consider `Cc1nsc(Nc2cnc(C(F)(F)F)cn2)c1C(=O)Nc1ccc(F)c(OCC2CCCN(CC(F)F)C2)c1` (stereo not drawn) [Example 335, N-(3-{[1-(2,2-difluoroethyl)piperidin-3-yl]methoxy}-4-fluorophenyl)-3-methyl-5-{[5-(trifluoromethyl)pyrazin-2-yl]amino}-1,2-thiazole-4-carboxamide], for which the figures for the IC50 in test [1] and in test [2] were 98 nM and ≥ 20000 nM, respectively. Turning to `CCNS(=O)(=O)c1ccc(NC(=O)c2c(C)nsc2Nc2cnc3ccccc3n2)cc1` [Example 116, N-[4-(Ethylsulfamoyl)phenyl]-3-methyl-5-(quinoxalin-2-ylamino)-1,2-thiazole-4-carboxamide], the IC50 is 1500 nM in test [1] (Homo sapiens, HeLa) and ≥ 20000 nM in test [2]. For `Cc1nsc(Nc2cnc(C(F)(F)F)cn2)c1C(=O)Nc1ccc(OC2CCN(CCC(F)(F)F)CC2)nc1` [Example 426, 3-Methyl-5-{[5-(trifluoromethyl)pyrazin-2-yl]amino}-N-(6-{[1-(3,3,3-trifluoro-propyl)piperidin-4-yl]oxy}pyridin-3-yl)-1,2-thiazole-4-carboxamide, Salt with Hydrochloric Acid], the IC50 in test [1] was 32 nM; in test [2] it was ≥ 20000 nM. Regarding `CCCN1CC[C@H](Oc2ccc(NC(=O)c3c(C)nsc3Nc3cnc(C(F)(F)F)cn3)cn2)[C@H](F)C1` [Example 147, N-(6-{[(3R,4S)-3-fluoro-1-propylpiperidin-4-yl]oxy}pyridin-3-yl)-3-methyl-5-{[5-(trifluoromethyl)pyrazin-2-yl]amino}-1,2-thiazole-4-carboxamide], the IC50 in test [1] (Homo sapiens, HeLa) is 30 nM; in test [2] it was > 20000 nM. For `Cc1nsc(Nc2cnc(C(F)(F)F)cn2)c1C(=O)Nc1ccc(O[C@H]2CCN(CC(F)(F)F)C[C@H]2F)nc1` [Example 145, N-(6-{[(3R,4S)-3-fluoro-1-(2,2,2-trifluoroethyl)piperidin-4-yl]oxy}pyridin-3-yl)-3-methyl-5-{[5-(trifluoromethyl)pyrazin-2-yl]amino}-1,2-thiazole-4-carboxamide], the IC50 was 37 nM in test [1] (Homo sapiens, HeLa) and > 20000 nM in test [2].

On to `Cc1nsc(Nc2cncc(C(F)(F)F)n2)c1C(=O)Nc1ccc(OC2CCN(C(=O)OC(C)(C)C)CC2)nc1` [Example 12, tert-Butyl 4-[(5-{[(3-methyl-5-{[6-(trifluoromethyl)pyrazin-2-yl]amino}-1,2-thiazol-4-yl)carbonyl]amino}pyridin-2-yl)oxy]piperidine-1-carboxylate], for which the IC50 in test [1] (Homo sapiens, HeLa) was 230 nM; in test [2] it was ≥ 20000 nM.

With `Cc1nsc(Nc2cnc(C(F)(F)F)cn2)c1C(=O)Nc1ccc(OC[C@H]2CCN(CC(F)F)C2)nc1` [Example 132, N-(6-{[(3S)-1-(2,2-difluoroethyl)pyrrolidin-3-yl]methoxy}pyridin-3-yl)-3-methyl-5-{[5-(trifluoromethyl)pyrazin-2-yl]amino}-1,2-thiazole-4-carboxamide], in test [2], the IC50 is > 20000 nM. The same measure, in the same setting: next, `Cc1nsc(Nc2cnc(C(F)(F)F)cn2)c1C(=O)Nc1ccc(OC[C@H]2CCN(CC(F)(F)F)C2)nc1` (racemic) [Example 133, 3-Methyl-N-(6-{[(SR)-1-(2,2,2-trifluoroethyl)pyrrolidin-3-yl]methoxy}pyridin-3-yl)-5-{[5-(trifluoromethyl)pyrazin-2-yl]amino}-1,2-thiazole-4-carboxamide]: > 20000 nM; `Cc1nsc(Nc2cnc(C(F)(F)F)cn2)c1C(=O)Nc1ccc(OC[C@H]2CCN(CCC(F)(F)F)C2)nc1` [Example 134, 3-Methyl-5-{[5-(trifluoromethyl)pyrazin-2-yl]amino}-N-(6-{[(3S)-1-(3,3,3-trifluoropropyl)pyrrolidin-3-yl]methoxy}pyridin-3-yl)-1,2-thiazole-4-carboxamide]: > 20000 nM.
